From article PMC4588578, “Targeting substrate-site in Jak2 kinase prevents emergence of genetic resistance” (Scientific Reports, 2015)
Where two headings read alike, the source gives them in different places.

Columns and labels:
[1] = system: BaF3 cells expressing JAK2-V617F/L983F; test: BaF3 cell proliferation dose-response; format: cell-based; details: variant L983F in JAK2-V617F
[2] = system: BaF3 cells expressing ruxolitinib-resistant JAK2-V617F variants; test: Dose-response analyses with ruxolitinib-resistant variants; format: cell-based; details: with or without IL-3
Description: Ba/F3 cells expressing mutant BCR-ABL proteins were plated in 96-well plates (0.5–1 × 10^4 cell per well) in RPMI medium containing 10% FCS and lacking IL-3. Kinase inhibitors were included in the media at varying concentrations. After 60 hours, the number of viable cells was assessed using WST-1 reagent (Roche Applied Science, USA), according to the manufacturer’s specifications. Assays were performed in quadruplicate.

JAK2 kinase domain E930G = target: T1, JAK2 kinase domain E930G (Mus musculus, UniProt Q62120, E930G); test: Dose response of purified kinase domain; format: biochemical
T1 construct: made in house; host or cells: Spodoptera frugiperda Sf9 (baculovirus)
Description: (§1) Proteins were expressed in Spodoptera frugiperda, Sf9 cells. […] Each point mutants was confirmed by sequence analysis. […] All purification steps were carried out at 4 °C.

JAK2 kinase domain L983F = target: T2, JAK2 kinase domain L983F (Mus musculus, UniProt Q62120, L983F); test: Dose response of purified kinase domain; format: biochemical
T2 construct: made in house; host or cells: Spodoptera frugiperda Sf9 (baculovirus)
Description: as §1

[3] = parameters: method as in PMID 21257798; details: at 100 mg/kg; cited from earlier work
[4] = system: BaF3 cells expressing luciferase and JAK2-V617F; test: In vivo efficacy, leukemic burden by bioluminescence; details: 100 mg/kg twice daily, IP, two weeks
[5] = system: BaF3 cells expressing luciferase and JAK2-V617F/L983F; test: as above; details: 100 mg/kg twice daily, IP, two weeks
[6] = system: BaF3 cells expressing JAK2-V617F/Y931C/I1018F; test: BaF3 cell proliferation dose-response; format: cell-based; details: Mus musculus, BaF3, read-out: IC50, cell proliferation
[7] = system: BaF3 cells expressing JAK2-V617F/Y931C/F1019L; test: BaF3 cell proliferation dose-response; format: cell-based; details: Mus musculus, BaF3, read-out: IC50, cell proliferation
[8] = system: BaF3 cells expressing JAK2-V617F/Y931C/W1020C; test: BaF3 cell proliferation dose-response; format: cell-based; details: Mus musculus, BaF3, read-out: IC50, cell proliferation
[9] = system: BaF3 cells expressing JAK2-V617F/Y931C/L1026F; test: BaF3 cell proliferation dose-response; format: cell-based; details: Mus musculus, BaF3, read-out: IC50, cell proliferation
[10] = system: BaF3 cells expressing JAK2-V617F/Y931C/S1025C; test: BaF3 cell proliferation dose-response; format: cell-based; details: Mus musculus, BaF3, read-out: IC50, cell proliferation
[11] = system: BaF3 cells expressing JAK2-V617F/Y931C/W1038C; test: BaF3 cell proliferation dose-response; format: cell-based; details: Mus musculus, BaF3, read-out: IC50, cell proliferation
[12] = system: BaF3 cells expressing JAK2-V617F/Y931C/S1039F; test: BaF3 cell proliferation dose-response; format: cell-based; details: Mus musculus, BaF3, read-out: IC50, cell proliferation
[13] = system: BaF3 cells expressing JAK2-V617F/Y931C/Y1045W; test: BaF3 cell proliferation dose-response; format: cell-based; details: Mus musculus, BaF3, read-out: IC50, cell proliferation
[14] = system: BaF3 cells expressing JAK2-V617F/Y931C/Y1045*; test: BaF3 cell proliferation dose-response; format: cell-based; details: Mus musculus, BaF3, read-out: IC50, cell proliferation
[15] = system: BaF3 cells expressing JAK2-V617F/Y931C/F1061W; test: BaF3 cell proliferation dose-response; format: cell-based; details: Mus musculus, BaF3, read-out: IC50, cell proliferation
[16] = system: BaF3 cells expressing JAK2-V617F/Y931C/V1075F; test: BaF3 cell proliferation dose-response; format: cell-based; details: Mus musculus, BaF3, read-out: IC50, cell proliferation
[17] = system: BaF3 cells expressing TEL-JAK2; test: BaF3 cell proliferation dose-response; format: cell-based; details: receptor-free fully activated JAK2 (TEL-JAK2); data not shown
Description: (§2) Assays were performed in quadruplicate.

[18] = system: phospho-STAT5 in JAK1-transduced cells; test: Phospho-STAT5 inhibition in transduced BaF3 cells; format: cell-based; details: Mus musculus
Description: as §2

[19] = system: phospho-STAT5 in JAK3-transduced cells; test: Phospho-STAT5 inhibition in transduced BaF3 cells; format: cell-based; details: Mus musculus
[20] = system: TEL-JAK1-expressing BaF3 cells; test: Soft-agar colony assay; format: cell-based
[21] = system: TEL-JAK3-expressing BaF3 cells; test: Soft-agar colony assay; format: cell-based
[22] = system: BaF3 cells expressing JAK2-V617F; test: Soft-agar colony assay; format: cell-based
[23] = system: BaF3 cells transduced with randomly mutagenized JAK2-V617F; test: In vitro drug-resistance screen, random mutagenesis; format: cell-based; details: ruxolitinib at 1, 2 and 5 μM; fedratinib at 2-fold above IC50
Description: To generate random mutation library of Jak2-V617F, E. coli XL1-red cells were transformed with one μg of JAK2-V617F plasmid DNA. More specifically, 50–100 ng of DNA (more than 100 ng of DNA decreases transformation efficiency) was mixed with 100 μl of competent cells in a pre-chilled polypropylene tube and incubated on ice for 30 min, gently swirling every 5 min. For a good library, four to six tubes of competent cells are used. Cells from each tube were plated on four 10 cm LB-agar plates containing 100-μg/ml ampicillin. Plates were incubated at 37 °C for 18–24 hours. When colonies became visible (18–24 hrs), cells were pooled from each plates and plasmid DNA was isolated using the Qiagen’s midiprep kit. At this stage, the heterogeneity of mutations in the library can be roughly assessed by restriction digestion with a frequent cutter such as Sau3A1 or Taq1 or sequencing.
To select resistant clones of JAK2-V617F, high titer retroviruses were produced as describe. One hundred million native BAF3 cells were transduced with 100 ml of virus supernatants having a viral titer of 0.5–1 × 10^6. […] We observed that the overexpression of EPOR or MPL tend to loose dependence on Jak2 resulting to emergence of false-positives[58]. More specifically, 100 × 10^6 cells were mixed with 100 ml of virus supernatant and 100 ml of RPMI, containing 10% serum and 24 μg/ml of polyberene. […]

[24] = system: phospho-STAT5 in BaF3 cells expressing JAK2-V617 variant L983F; test: Immunoblot analysis of phospho-STAT5; format: cell-based
[25] = system: BaF3 cells expressing JAK2-V617F; details: read-out: IC50, cell proliferation
[26] = system: BaF3 cells expressing JAK2-V617F; test: cells; details: Mus musculus, BaF3, read-out: IC50, cell proliferation, BaF3 JAK2-V617F

T2 sequence (Q62120 849-1124 L983F limits assumed): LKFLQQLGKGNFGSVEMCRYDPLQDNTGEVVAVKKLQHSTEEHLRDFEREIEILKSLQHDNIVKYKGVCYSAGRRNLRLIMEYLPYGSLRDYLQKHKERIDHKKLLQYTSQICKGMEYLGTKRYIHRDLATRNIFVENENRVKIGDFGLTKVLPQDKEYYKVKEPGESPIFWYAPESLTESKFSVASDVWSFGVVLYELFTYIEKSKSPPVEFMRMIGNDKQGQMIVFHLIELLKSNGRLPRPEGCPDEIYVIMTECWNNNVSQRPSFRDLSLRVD
T1 sequence (Q62120 849-1124 E930G limits assumed): as the sequence (Q62120 849-1124 L983F limits assumed) above, with E82G, F135L counted along it

## C[C@]12O[C@H](C[C@]1(O)CO)n1c3ccccc3c3c4c(c5c6ccccc6n2c5c31)CNC4=O [lestaurtinib]
[1]
  resistance or sensitivity of variant L983F: resistance
[2]
  resistance of ruxolitinib-resistant variants: cross-resistance

## N#CCNC(=O)c1ccc(-c2ccnc(Nc3ccc(N4CCOCC4)cc3)n2)cc1 [CYT-387]
[1]
  resistance or sensitivity of variant L983F: full sensitivity
JAK2 kinase domain E930G
  resistance or sensitivity of purified kinase domain: sensitive
JAK2 kinase domain L983F
  resistance or sensitivity of purified kinase domain: sensitive
[2]
  resistance of ruxolitinib-resistant variants: cross-resistance

## Cc1cc(Nc2nc(N[C@@H](C)c3ncc(F)cn3)ncc2Cl)n[nH]1 [AZD1480]
[1]
  resistance or sensitivity of variant L983F: resistance
[2]
  resistance of ruxolitinib-resistant variants: cross-resistance

## N#CC[C@H](C1CCCC1)n1cc(-c2ncnc3[nH]ccc23)cn1 [ruxolitinib]
[3]
  Cmax: 4.4 µM
[4]
  effect on transplanted cells (leukemic burden): eradicated
[5]
  effect on transplanted cells (leukemic burden): ineffective

## Cc1cnc(Nc2ccc(OCCN3CCCC3)cc2)nc1Nc1cccc(S(=O)(=O)NC(C)(C)C)c1 [fedratinib]
[6]
  IC50: 1490 nM
[7]
  IC50: 1030 nM
[8]
  IC50: 1010 nM
[9]
  IC50: 1690 nM
[10]
  IC50: 2310 nM
[11]
  IC50: 1580 nM
[12]
  IC50: 1640 nM
[13]
  IC50: 2110 nM
[14]
  IC50: 1680 nM
[15]
  IC50: 1980 nM
[16]
  IC50: 2250 nM
[17]
  increase in hypersensitivity of TEL-JAK2 in comparison to JAK2-V617F: ~ 3 fold
[18]
  IC50: > 10000 nM
[19]
  IC50: > 5000 nM
[20]
  concentration up to which colony growth is supported: 6 µM
[21]
  concentration up to which colony growth is supported: 4 µM
[22]
  concentration above which cells failed to grow: 3 µM
[23]
  emergence of resistant clones: did not result in any resistant clones
[2]
  resistance of ruxolitinib-resistant variants: complete lack of resistance
[24]
  phospho-STAT5 inhibition (immunoblot): dose-dependent inhibition
[25]
  IC50: ~900 nM
[26]
  IC50: 1070 nM
